Assay results taken from patent US20250186430A1, “THERAPY OF INTEROCEPTION DISORDERS WITH CGRP RECEPTOR ANTAGONISTS” (priority 2022, published 2025).

Experiments:
[1] = tested on: rats exposed to the chemotherapeutic drug cisplatin; assay: cisplatin model of malaise due to antineoplastic chemotherapy; format: in vivo; conditions: cisplatin 6 mg/kg intraperitoneal, gepant 10 mg/kg orally, daily, starting two days before cisplatin
Procedure: FIG. 1. Effect of rimegepant, ubrogepant, atogepant and zavegepant (10 mg/kg orally, daily, starting two days before cisplatin) on food consumption/anorexia, weight loss and weight body recovery in rats exposed to cisplatin (6 mg/kg, intraperitoneal), as an experimental model of malaise due to antineoplastic chemotherapy. * p<0.05, ** p<0.01, *** p<0.001, vs control, ANOVA and Tukeys post hoc test.

[2] = tested on: mice with chronic arthritis due to injection of Freund's adjuvant; assay: chronic arthritis (Freund's adjuvant) model of malaise due to chronic pain; format: in vivo; conditions: gepant 10 mg/kg orally, daily, starting two days before arthritis induction
Procedure: FIG. 2. Effects of rimegepant, ubrogepant, atogepant and zavegepant (10 mg/kg orally, daily, starting two days before arthritis induction) on food consumption/anorexia, weight loss and spontaneous motility in mice with chronic arthritis due to injection of Freund's adjuvant as an experimental model of malaise due to chronic pain. * p<0.05, ** p<0.01, *** p<0.001 vs Arthritis, ANOVA and Tukeys post hoc test.

[3] = tested on: rats subjected to laparotomy and gut manipulation; assay: laparotomy and gut manipulation model of malaise due to abdominal surgery; format: in vivo; conditions: gepant 10 mg/kg orally, daily, starting two days before surgery
Procedure: FIG. 3. Effects of rimegepant, ubrogepant, atogepant and zavegepant (10 mg/kg orally, daily, starting two days before surgery) on body weight loss and food consumption/anorexia in rats subjected to laparotomy and gut manipulation as an experimental model of malaise due to abdominal surgery. * p<0.05, ** p<0.01, *** p<0.001 vs Laparotomy, ANOVA and Tukeys post hoc test.

[4] = tested on: rats treated with carbon tetrachloride; assay: carbon tetrachloride model of malaise due to hepatopathy; format: in vivo; conditions: gepant 10 mg/kg orally, daily, starting two days before carbon tetrachloride
Procedure: Further, we have tested the gepants in a model of hepatopathy, a condition that typically prompts asthenia, weight loss and anhedonia.
FIG. 4. Effects of rimegepant, ubrogepant, atogepant and zavegepant (10 mg/kg orally, daily, starting two days before carbon tetrachloride) on body weight loss and sweet water consumption in rats treated with carbon tetrachloride as a model of malaise due to hepatitis/hepatopathy. * p<0.05, ** p<0.01, *** p<0.001 vs Hepatitis, ANOVA and Tukeys post hoc test.

[5] = tested on: rats injected with cerulein; assay: cerulein model of pancreatitis; format: in vivo; conditions: gepant 10 mg/kg orally, daily, starting two days before cerulein treatment
Procedure: FIG. 5. Effects of rimegepant, ubrogepant, atogepant and zavegepant (10 mg/kg orally, daily, starting two days before cerulein treatment) on body weight loss and spontaneous motility in rats injected with cerulein as an experimental model of pancreatitis. * p<0.05, ** p<0.01, *** p<0.001 vs Pancreatitis, ANOVA and Tukeys post hoc test.

[6] = tested on: rats treated with a diet containing 0.75% adenine; assay: 0.75% adenine diet model of renal insufficiency; format: in vivo; conditions: gepant 10 mg/kg orally, daily, starting two days before nephrotoxic diet
Procedure: Further, we have tested the gepants in rats treated with a diet containing 0.75% adenine as an experimental model of renal insufficiency.
FIG. 6. Effects of rimegepant, ubrogepant, atogepant and zavegepant (10 mg/kg orally, daily, starting two days before exposure to the nephrotoxic diet) on body weight loss and food consumption/anorexia in rats exposed to a diet containing 0.75% adenine as an experimental model of renal insufficiency. *p<0.05, ** p<0.01, *** p<0.001 vs Kidney Failure, ANOVA and Tukeys post hoc test.

[7] = tested on: mice sensitized and re-challenged with ovalbumin; assay: ovalbumin model of asthma or chronic obstructive pulmonary disease; format: in vivo; conditions: gepant 10 mg/kg orally, daily, starting two days before antigen rechallenge
Procedure: FIG. 7. Effects of rimegepant, ubrogepant, atogepant and zavegepant (10 mg/kg orally, daily, starting two days before antigen rechallenge) on spontaneous motility, body weight loss and sweet water ingestion of mice sensitized and re-challenged with ovalbumin as a model of asthma or chronic obstructive pulmonary disease. * p<0.05, ** p<0.01, *** p<0.001 vs […], ANOVA and Tukeys post hoc test.

[8] = tested on: rats injected with Yoshida hepatoma; assay: Yoshida hepatoma model of malaise due to tumor cachexia; format: in vivo; conditions: gepant 10 mg/kg orally, daily, starting two days before tumor injection
Procedure: As additional models of malaise due to interoceptive information, we have adopted those of tumor cachexia and sepsis.
FIG. 8. Effects of rimegepant, ubrogepant, atogepant and zavegepant (10 mg/kg orally, daily, starting two days before tumor injection) on body weight loss, muscle mass and food consumption/anorexia in rats injected with Yoshida hepatoma, as classic model of malaise due to tumor cachexia. * p<0.05, ** p<0.01, *** p<0.001. **** p<0.0001 vs Hepatoma, ANOVA and Tukeys post hoc test.

[9] = tested on: rats injected intraperitoneally with lipopolysaccharides from Salmonella Typhimurium; assay: lipopolysaccharide model of malaise due to sepsis/systemic immune activation; format: in vivo; conditions: gepant 10 mg/kg orally, daily, starting two days before lipopolysaccharides injection
Procedure: FIG. 9. Effects of rimegepant, ubrogepant, atogepant and zavegepant (10 mg/kg orally, daily, starting two days before lipopolysaccharides injection) on body weight loss and food consumption/anorexia in rats injected intraperitoneally with lipopolysaccharides from Salmonella Typhimurium as a classic model of malaise due to sepsis/systemic immune activation. * p<0.05, ** p<0.01, vs Sepsis, ANOVA and Tukeys post hoc test.

[10] = background art; cited from earlier work
[11] = background art; cited from earlier work; remark: listed apart in the source

SMILES	body weight loss [1]	food aversion/anorexia [1]	weight body recovery [1]	food aversion/anorexia [2]	spontaneous motility [2]	weight loss [2]	food aversion/anorexia [3]	weight loss [3]	sweet water consumption (index of motivational behavior and reduced anhedonia) [4]	weight loss [4]	reduction in spontaneous motility [5]	weight loss [5]	decrease of food consumption/anorexia [6]	weight loss [6]	decrease of sweet water consumption [7]	spontaneous motility (parameter of malaise) [7]	weight loss [7]	loss of muscle mass [8]	reduction of food consumption/anorexia [8]	hepatotoxicity [10]	other results
C[C@@H]1[C@H](c2c(F)ccc(F)c2F)C[C@H](NC(=O)c2cnc3c(c2)C[C@@]2(C3)C(=O)Nc3ncccc32)C(=O)N1CC(F)(F)F [atogepant]	reduces	reduces	accelerates	reduces	increases	reduces	in part	completely prevents	triggers an increase	reduces	prevents	prevents	reduces	reduces	reduces	reduces	reduces	counteracting	counteracting	non-hepatotoxic	weight loss [8]: reducing; decrease of food consumption/anorexia [9]: reduces; weight loss [9]: reduces
NCCCC[C@H](NC(=O)[C@@H](Cc1cc(Br)c(O)c(Br)c1)NC(=O)N1CCC(N2Cc3ccccc3NC2=O)CC1)C(=O)N1CCN(c2ccncc2)CC1 [olcegepant]	–	–	–	–	–	–	–	–	–	–	–	–	–	–	–	–	–	–	–	occurrence of hepatotoxicity	efficacy as anti-migraine drugs [11]: proved efficacious
N[C@@H]1c2cccnc2[C@H](OC(=O)N2CCC(n3c(=O)[nH]c4ncccc43)CC2)CC[C@H]1c1cccc(F)c1F [rimegepant]	reduces	reduces	accelerates	reduces	increases	reduces	in part	completely prevents	triggers an increase	reduces	prevents	prevents	reduces	reduces	reduces	reduces	reduces	counteracting	counteracting	non-hepatotoxic	weight loss [8]: reducing; decrease of food consumption/anorexia [9]: reduces; weight loss [9]: reduces
O=C(N[C@@H]1CC[C@@H](c2cccc(F)c2F)CN(CC(F)(F)F)C1=O)N1CCC(n2c(=O)[nH]c3ncccc32)CC1 [telcagepant]	–	–	–	–	–	–	–	–	–	–	–	–	–	–	–	–	–	–	–	occurrence of hepatotoxicity	efficacy as anti-migraine drugs [11]: proved efficacious
C[C@@H]1[C@H](c2ccccc2)C[C@H](NC(=O)c2cnc3c(c2)C[C@@]2(C3)C(=O)Nc3ncccc32)C(=O)N1CC(F)(F)F [ubrogepant]	reduces	reduces	accelerates	reduces	increases	reduces	in part	completely prevents	triggers an increase	reduces	prevents	prevents	reduces	reduces	reduces	reduces	reduces	counteracting	counteracting	non-hepatotoxic	weight loss [8]: reducing; decrease of food consumption/anorexia [9]: reduces; weight loss [9]: reduces
Cc1cc(C[C@@H](NC(=O)N2CCC(c3cc4ccccc4[nH]c3=O)CC2)C(=O)N2CCN(C3CCN(C)CC3)CC2)cc2cn[nH]c12 [zavegepant]	reduces	reduces	accelerates	reduces	increases	reduces	in part	completely prevents	triggers an increase	reduces	prevents	prevents	reduces	reduces	reduces	reduces	reduces	counteracting	counteracting	non-hepatotoxic	weight loss [8]: reducing; decrease of food consumption/anorexia [9]: reduces; weight loss [9]: reduces
